Data: patent publication US7074925B1, “N-substituted derivatives of 5-oxyiminobarbituric acid” (priority 1998, dated 2006)
≈ marks a conversion by molar mass, not a printed value.

Assays:
[1] = system: cholesterol synthesis by human's fibroblasts; test: Inhibition of cholesterol synthesis in human's fibroblasts; format: cell-based; settings: 400 ng/ml, [2-14C] acetate incorporation, 4 hours
Procedure: Influence of the substance (400 ng/ml) on cholesterol synthesis by human's fibroblasts was investigated. […] The spots corresponding to cholesterol were removed from a plate to a vial and then were coated with scintillation liquid; after that radioactivity was measured expressed as pulse/min/mg of cell protein. Lovastatin taken in the same concentration as the tested substance was utilized as a reference agent.

[2] = system: primary culture of human lymphocytes (IFN-α production); test: Interferon-inducing activity in primary culture of human lymphocytes; format: cell-based
Procedure: Interferon synthesis induction caused by the claimed compounds was conducted on a primary culture of human lymphocytes (it is these cells in a human organism that are the main producers of interferons). To obtain lymphocyte culture, fresh blood (within 12 hours after sampling) from healthy donors (not of group II) was used. To separate lymphocytes, heparinized blood obtained from healthy donor was centrifuged in a density gradient of ficoll-verografin of […] in order to extract a fraction of immunocompetent cells. This fraction was selected and diluted with the nutrient medium RPMI-1640, containing 5% of fetal calf serum, 0.3 mg/ml of L-glutamin, 100 un/ml of penicillin, and […] of streptomycin. The concentration of lymphocytes was considered after dying them with methylene blue and calculation of cell number in Goryaev chamber. Initial solutions of the claimed compounds were diluted with the nutrient medium RPMI-1640 so that the final concentrations of the compounds, which were obtained after introduction of lymphocyte suspension, constituted the raw: 100 μg/ml, 10 μg/ml, 1 μg/ml. The final concentration of lymphocytes in the induction mixture was 3×10^6 cell/ml.
In parallels to the test samples the following controls were done: • 1). Control of spontaneous production of interferons (IFN) by lymphocytes. • 2). […] Control of spontaneous production of interferons in presence of DMSO taken in an amount corresponding to the test samples.
Control and test samples were incubated for 24 hours at the temperature of 37° C. After incubation, the samples were centrifuged at 2,000 G to deposit cell elements, and IFN-containing supernatant was separate out of samples; then the supernatant was analyzed for the quantitative content of IFN. Cell deposition was resuspended in the previous volume of nutrient medium, coloured with vital dye trypan blue, and cell number was counted in the Goryaev chamber (as described above) to determine cytotoxic action of the compounds. The quantitative determination of content of IFN in control and test samples was conducted using the immunoenzyme test system Pro Con IF2 Plus, that is intended for determination of IFN-α, which is produced by TOO “Protein contour”. The solid-phase immunoenzyme method, utilizing horse radish peroxidase as an indicator enzyme, was used to determine the quantity of interferon in the samples. Activity of the bonded peroxidase was measured using an automatic photometer for microplates with a microprocessor at the wavelength of 450 nm.
Based on the obtained results, a calibrating curve was formed, which allows to obtain data expressed in international units (IU) of activity, using the microprocessor of the automatic photometer. The results of the analysis are expressed in IU of activity of IFN per ml in the given induction system, which contains 3×10^4 lymphocyte/ml. Each test and control point was investigated in four parallels.
Controls of immunoenzyme reaction: • 1. Control of DMSO with a nutrient medium. • 2. Control of system components (according to an instruction).
The obtained data were undergone a statistical analysis using t-criterion, and calculation of the confident interval of probability at p=0.05 was carried out. Coincidence of results in the parallel tests was analyzed.

[3] = Antioxidant action, riboflavine chemiluminescence; format: biochemical; settings: solvent water, phosphate buffer pH 9.1
Text: To assess a general antioxidant activity the method of riboflavine chemiluminescence was used. The test substance was introduced into a system consisted of phosphate buffer (pH 9.1), solution of riboflavine, and solution of bivalent iron sulfate. Chemiluminescence was initiated by 0.1% solution of hydrogen peroxide and registered by means of luminometer. […] Ascorbic acid was used as a reference agent.

[4] = Antiulcerous action, water immersion stress with immobilization; format: in vivo, rats; settings: 20 mg/kg perorally; for % of animals with ulcers: rats, 4 hours stress, control 100; for % of reducing number of ulcers / % of reducing ulceration index: versus control; for Number of lesions: control 8.3 ± 2.5; for ulceration index: control 10.5 ± 5.7
Procedure: Antiulcerous activity of substances was tested on a model of experimental water immersion stress with immobilization. […] After that, gastric mucous membrane was investigated, number and sizes of ulcers were counted, ulceration index was determined (an average sum of ulcer lengths per one animal in a group).

[5] = Determination of maximal tolerable dose; format: in vivo; settings: oral administration, mice, observed 72 hours; 300 was the maximally utilized one
Procedure: Tested substance was introduced perorally (in dose of 300 mg/kg) through a gastric tube or intraperitoneally (in dose of 100 mg/kg) to no-breed white mice with mass 18-20 g (each tested group consisted of 3 males and 3 females). Then the mouse state was observed during 72 hours. Absence of symptoms characteristic of toxic effects, or absence of animal death during the given time allows to make a conclusion that the toxicity of the test substance is low. If acute toxicity effects are observed, the dose is reduced to find maximal tolerable dose.

[6] = Hypoglycemic activity after glucose load; format: in vivo, mice; settings: 100 mg/kg perorally, glucose 1000 mg/kg s.c.; for Glucose in blood: after one hour, glucose control 8.26 ± 0.50
Procedure: Test substance (100 mg/kg) was perorally administrated to fasted mice, and, immediately after that, solution of glucose (1000 mg/kg) was administrated subcutaneously. Glucose content in blood was determined in a hour by the orthotoluidine method. Reducing of glucose level by more than 20% relative to control animals indicated hypoglycemic properties. Glibenclamide (I mg/kg) was utilized as a reference agent.

[7] = system: Herpes virus of the type I (HSV-I/Leningrad/248/88); test: Effect on Herpes virus, cytopathogenic action on Vero cells; format: cell-based, Herpes Simplex virus; settings: compound 100 μg/ml; for Quantity of the unchanged cells (number of cells in 100 visual fields): Vero cells, 36 hours, cell control 10000; for percentage of protection of cells from virus: compared to the control of cell culture
Procedure: An antiviral activity was determined with respect to Herpes virus of the type I (HSV-I/Leningrad/248/88) by means of commonly accepted method. Viruses were grown on a continuous culture of Vero cells that have been received from the Bank of Cell Cultures of the Institute of Cytology of the Russian Academy of Science.
A virus in a final concentration of […] and the claimed compounds dissolved in DMSO in final concentrations of 100, 10 and 1 mg/l were added to cells that were grown on the RPMI-1640 medium with 10% fetal calf serum and placed into wells of the 96-well plate. 5 separate wells were used for each of tested concentrations of an agent. The plate was incubated during 60 minutes at 38° C. in a CO2-incubator. After the incubation, the virus was removed and then a fresh medium containing claimed compounds in used concentrations was again introduced.
Results were evaluated basing on presence of cytopathogenic action on the cells after 36 hours of incubation at 38° C. in the CO2-incubator.
The next controls were used in the experiment: • 1. Control of cell culture (capability to grow properly) • 2. Control of the virus (evaluation of capability for reproduction) • 3. Control of an antiviral activity of an antiviral drug Acyclovir • 4. Control of compounds (toxicity of compounds) • 5. Control of a solvent (DMSO) for toxicity.
To estimate a cytopathic action of the virus, a quantity of the unchanged cells was calculated in 100 visual fields formed by a special net of an eyepiece of the inverted microscope.

[8] = system: Human's platelet aggregation; test: Antiaggregational properties, ADP-induced platelet aggregation; format: cell-based; settings: 100 μg/ml, ADP […], platelet-enriched human plasma
Text: Human's platelet aggregation was investigated in plasma of healthy 50±3 years donors that was enriched by thrombocytes, by means of aggregometer FRM-1. […] Magnitude of a maximum non-reversible platelet aggregation in the control samples (solvent) was adopted as 100%, and that in tested samples was counted as the percentage compared to the control.

C.trachomatis D323 = test: Action on Chlamydia trachomatis in cell culture; format: cell-based; settings: 100 mg/l
Procedure: The antimicrobial activity of the claimed compounds was studied relative to C.trachomatis […], which is a standard strain from the collection of the chair of microbiology of St. Petersburg State Pavlov Medical University. […] Cell cultures McCoy and L929 obtained from the Institute of Cytology of RAS were used in this work. Cells were grown in flasks made of neutral glass in the medium RPMI-1640 with the addition of 10% of fetal calf serum. The test was performed in glass (non-toxic) flat-bottom flasks with cover glasses. The cells were introduced into the medium in the final concentration of […]. […] Simultaneously, tested compounds in a final concentration of 100 mg/l were added to the cells. The sample was centrifuged at 2400 G during 60 minutes at room temperature and incubated at 37° C. for 2 hours. […] The samples were doubled using the medium without cycloheximide so as to exclude its effect on the investigated compounds. The samples were incubated in a CO2-incubator for 48 hours. […] The effect of the action of substance was determined by analysis of the monolayer state and number of cells with CPI when compared with the control (cell culture infected with C.trachomatis […]); in doing so, the number of unchanged cells, that were counted in 100 visual fields obtained using the special net of the microscope eyepiece, was taken into consideration. […] Control of cell culture: morphology of cells and state of monolayer correspond to the given type of the cells; control of chlamydia growth in the cell culture: presence of CPI in the monolayer; control of action of standard antimicrobial agent: reduction of number of CPI in the monolayer as compared to the previous control; control of toxicity of the claimed compounds: toxicity is absent; control of action of solvents: toxic action on cells is absent.

[9] = Hepatoprotective activity, CCl4 liver damage (AlAT); format: in vivo, rats
Procedure: CCl4 dissolved in 50% olive oil (1 ml/kg) was subcutaneously administrated to rats. Test substances were administrated perorally in a dose of 20 mg/kg 30 minutes before and 7 hours after the CCL4 administration. The activity of alanine-aminotranspherase (AlAT), which is a marker enzyme of liver parenchyma damage, was assessed twenty-four hours later. Reducing of enzyme amount by more than 30% relative to the control group was considered as evidence of hepatoprotective properties of the substance.
Silymarin in a dose of 100 mg/kg was used as a reference agent.

[10] = Psychodepressive activity, behavioral score; format: in vivo, mice; settings: per oral 300 mg/kg, one hour after dosing; total 60, less than 40 significant
Procedure: Each parameter scores 2 points for an each mouse that had unchanged behavior. The total point sum was 60 (2×10×3 mice). Reducing score to less than 40 one hour after dosing with a substance per oral (300 mg/kg) denoted significant behavioral depression. Haloperidol was utilized as a reference agent.

[11] = Psychostimulating activity, symptom score; format: in vivo, mice; settings: tested substances perorally 300 mg/kg, one hour after; maximum 30 points, more than 12 significant

Structure (SMILES) | IC50, suppressing chemiluminescence by 50% [3] | % of animals with ulcers [4] | % of reducing number of ulcers [4] | % of reducing ulceration index [4] | Number of lesions [4] | ulceration index [4] | % change of glucose relative to glucose control [6] | Glucose in blood [6] | Quantity of the unchanged cells (number of cells in 100 visual fields) [7] | percentage of protection of cells from virus [7] | % of inhibition of platelet aggregation [8] | also measured
O=C1NC(=O)N(c2cccc(C(F)(F)F)c2)C(=O)C1=NO [XXXII] | 6.40 µg/mL (≈ 21.2 µM) | 100% | −52% | −64% | 4.0 ± 1.3 | 3.8 ± 1.5 | −14% | 7.10 ± 0.28 mmol/L | 5000 | (50%) | 64.3 ± 6.2% | % of inhibition of cholesterol synthesis [1]: 23.5%; Content of IFN in induction mixture after 24-hour incubation ([2]; substance 1 mg/l): 12.5 ± 1.0 IU/3 × 10^4 lymph./ml; Content of IFN in induction mixture after 24-hour incubation ([2]; substance 10 mg/l): 77.5 ± 1.5 IU/3 × 10^4 lymph./ml; Content of IFN in induction mixture after 24-hour incubation ([2]; substance 100 mg/l): 126.5 ± 1.6 IU/3 × 10^4 lymph./ml; Maximal tolerable dose, concentration of test substances [5]: 300 mg/kg
O=C1NC(=O)N(c2ccc(F)cc2)C(=O)C1=NO [XXVII] | 13.00 µg/mL (≈ 51.8 µM) | 67% | −79% | −88% | 1.7 ± 1.3 | 1.3 ± 1.0 | −12% | 7.26 ± 0.41 mmol/L | 6500 | (65%) | 24.3 ± 4.8% | percentage of cell protection from infection (C.trachomatis D323): (65%); Number of unchanged cells (C.trachomatis D323; 48 hours, counted in 100 visual fields, cell control 8.000, infected cells 6.000): 7.300; AlAT ([9]; 20 mg/kg perorally 30 minutes before and 7 hours after CCl4, 24 hours, CCl4 control 0.83 ± 0.21, intact 0.27 ± 0.04): 0.42 ± 0.08 mmol/L/h; % of reducing AlAT ([9]; 20 mg/kg perorally, relative to CCl4 control): −49%; Point number (behavioral depression) [10]: 31
CN1CCc2cccc3c2[C@H]1Cc1ccc(O)c(O)c1-3 [Apomorphine, reference compound] | – | – | – | – | – | – | – | – | – | – | – | Number of points (psychostimulation) [11]: 19
CC[C@H](C)C(=O)O[C@H]1C[C@@H](C)C=C2C=C[C@H](C)[C@H](CC[C@@H]3C[C@@H](O)CC(=O)O3)[C@H]21 [Lovastatin, reference compound] | – | – | – | – | – | – | – | – | – | – | – | inhibition at 0.4 µg/mL ([1]; Homo sapiens, Fibroblast): 76.4%
